Consider 48 compounds from ChEMBL document CHEMBL1146118, “Design, synthesis and biological evaluations of novel oxindoles as HIV-1 non-nucleoside reverse transcriptase inhibitors. Part I” (Bioorg Med Chem Lett, 2006).

Usually EC50 stands for the concentration that produces a half-maximal response. Lower therefore signals higher potency in that assay. What is called CC50 is the concentration that lowers cell viability or growth by half. A low value points to greater toxicity to the cells.

In test [1] the test system is Human immunodeficiency virus 1. Put plainly: Antiviral activity against HIV1 in HEK293T cells. The test is classed as functional, organism-based. The following applies: Human immunodeficiency virus 1, HEK-293T.
The next test has as its system HEK293. In words: Cytotoxicity against HEK293T cells. The following applies: Homo sapiens. The test is classed as functional.

`CON(C)C(=O)[C@H]1C[C@]12C(=O)Nc1ccc(Br)cc12` had an EC50 in test [1] of 0.656 µM. The compound also returned a CC50 in the test on HEK293 of over 10 µM.
The matching figures for `CCCCC(=O)[C@H]1C[C@]12C(=O)Nc1ccc(Br)cc12`: 0.62 µM and over 10 µM.
The matching figures for `CCOC(=O)[C@H]1C[C@]12C(=O)Nc1ccc(-c3ccccc3)cc12`: 0.126 µM and over 10 µM.
The matching figures for `CCCCC1CC12C(=O)Nc1ccc(Br)cc12` (stereo not given): 0.197 µM and over 10 µM.
Turning to `COC(=O)CC1CC12C(=O)Nc1ccc(Br)cc12` (stereo not given), the EC50 in test [1] was over 10 µM. Besides, the CC50 in the test on HEK293 is over 10 µM.
In test [1], `CCOC(=O)[C@H]1[C@@H](CC)[C@]12C(=O)Nc1ccc(Br)cc12` had an EC50 of 1.21 µM. In addition, the CC50 in the test with HEK293 is over 10 µM.
The corresponding values for `CCOC(=O)[C@H]1C[C@]12C(=O)Nc1ccc(Cl)cc12` are 0.059 µM and over 10 µM.
The corresponding values for `O=C([C@H]1C[C@]12C(=O)Nc1ccc(Br)cc12)N1CCCC1` are 0.191 µM and over 10 µM.
The matching figures for `CCOC(=O)[C@H]1C2(CCCC2)[C@]12C(=O)Nc1ccc(Br)cc12`: 1.46 µM and over 10 µM.
For `CCCNC(=O)[C@H]1C[C@]12C(=O)Nc1ccc(Br)cc12`, in test [1], the EC50 is over 10 µM. The compound also yielded a CC50 in the test with HEK293 of over 10 µM.
In turn, `CCOC(=O)[C@H]1C[C@]12C(=O)Nc1ccc([N+](=O)[O-])cc12` registered an EC50 in test [1] of 1.03 µM. This compound displayed a 50% cytotoxic concentration (CC50) in the test with HEK293 of over 10 µM.
The compound `CCOC(=O)[C@H]1C[C@]12C(=O)Nc1ccccc12` displayed an EC50 in test [1] of 0.279 µM. The same compound yielded a CC50 in the test on HEK293 of over 10 µM.
The matching figures for `CCOC(=O)[C@H]1C[C@]12C(=O)Nc1ccc(C#N)cc12`: 0.066 µM and over 10 µM.
The corresponding values for `CCOC(=O)[C@H]1C[C@]12C(=O)Nc1ccc(-c3cccn3C)cc12` are 0.358 µM and 8.06 µM.
The matching figures for `CC(C)OC(=O)[C@H]1C[C@]12C(=O)Nc1ccc(Br)cc12`: 0.059 µM and over 10 µM.
On to `CCOC(=O)[C@H]1C[C@]12C(=O)Nc1ccc(F)cc12`, for which the EC50 in test [1] is 0.289 µM. Further, the CC50 with HEK293 was over 10 µM.
The corresponding values for `CCOC(=O)[C@H]1C[C@]12C(=O)Nc1ccc(Br)cc12` are 0.066 µM and over 10 µM.
The matching figures for `CCCCCC#CC1CC12C(=O)Nc1ccc(Br)cc12` (stereo not given): 0.463 µM and 6.62 µM.
In the case of `CCOC(=O)/C=C1/C(=O)Nc2ccc(Br)cc21`, it took 2.28 µM to reach a half-maximal effect in test [1] (EC50). Moreover, the CC50 in the test on HEK293 was over 10 µM.
The corresponding values for `CCOC(=O)[C@H]1C(C)(C)[C@]12C(=O)Nc1ccc(Br)cc12` are 0.015 µM and over 10 µM.
The corresponding values for `CCOC(=O)[C@H]1C[C@]12C(=O)Nc1cc(Cl)ccc12` are over 10 µM and over 10 µM.
The corresponding values for `CCOC(=O)[C@@H]1C[C@]12C(=O)Nc1ccc(Br)cc12` are over 10 µM and over 10 µM.
Take `O=C1Nc2ccc(Br)cc2C12CC2COc1ccccc1` (stereo not given): in test [1], the EC50 came to 5.62 µM. In the test on HEK293, the CC50 is over 10 µM.
The corresponding values for `CC(C)(C)OC(=O)[C@H]1C[C@]12C(=O)Nc1ccc(Br)cc12` are 0.04 µM and over 10 µM.
Turning to `CCOC(=O)[C@H]1C[C@]12C(S)=Nc1ccc(Br)cc12`, the EC50 in test [1] is over 10 µM. The compound also showed a CC50 in the test on HEK293 of over 10 µM.
Compound `CCOC(=O)[C@H]1C[C@]12C(=O)Nc1ccc(N)cc12` showed an EC50 in test [1] of 2.7 µM. For the same compound, the CC50 in the test with HEK293 was 1.99 µM.
The corresponding values for `O=C(OCc1ccccc1)[C@H]1C[C@]12C(=O)Nc1ccc(Br)cc12` are 5.58 µM and over 10 µM.
The matching figures for `CCOC(=O)[C@H]1C[C@]12C(=O)Nc1c(C)cc(Cl)cc12`: 2.25 µM and over 10 µM.
The corresponding values for `O=C(O)[C@H]1C[C@]12C(=O)Nc1ccc(Br)cc12` are 7.63 µM and over 10 µM.
As for `CCOC(=O)[C@H]1C[C@]12C(=O)Nc1ccc(OC(F)(F)F)cc12`, the EC50 in test [1] turned out to be 2.23 µM. The CC50 in the test on HEK293 was over 10 µM.
The matching figures for `CCOC(=O)[C@H]1C(CC)(CC)[C@]12C(=O)Nc1ccc(Br)cc12`: over 10 µM and over 10 µM.
The corresponding values for `O=C([C@H]1C[C@]12C(=O)Nc1ccc(Br)cc12)N1CCSC1` are 0.18 µM and over 10 µM.
The matching figures for `CCOC(=O)[C@H]1C[C@]12C(=O)Nc1c(Cl)cc(Cl)cc12`: 7.36 µM and over 10 µM.
As for `CCOC(=O)CC1(C)C(=O)Nc2ccc(Br)cc21` (stereo not given), in test [1], the EC50 is over 10 µM. The CC50 in the test on HEK293 is over 10 µM.
In test [1], `CCOC(=O)[C@H]1C[C@]12C(=O)Nc1ccc(I)cc12` registered an EC50 of 0.486 µM. The CC50 in the test on HEK293 was over 10 µM.
As to `CCOC(=O)[C@H]1C[C@]12C(=O)N(C)c1ccc(Br)cc12`, the EC50 in test [1] is over 10 µM. The compound further displayed a CC50 in the test with HEK293 of over 10 µM.
Compound `CCOC(=O)[C@@]1(C)C[C@]12C(=O)Nc1ccc(Br)cc12` registered an EC50 in test [1] of 33.3 µM. Further, the CC50 in the test on HEK293 was over 10 µM.
The corresponding values for `C=Cc1ccc2c(c1)[C@@]1(C[C@@H]1C(=O)OCC)C(=O)N2` are over 10 µM and over 10 µM.
The corresponding values for `CCOC(=O)[C@H]1C[C@]12C(=O)Nc1ccc(-c3cccs3)cc12` are 2.65 µM and 1.94 µM.
The matching figures for `CCOC(=O)[C@H]1C[C@]12C(=O)Nc1ccc(C)cc12`: 1.09 µM and over 10 µM.
As for `O=C([C@H]1C[C@]12C(=O)Nc1ccc(Br)cc12)N1CCCCC1`, in test [1], the EC50 came out at 0.586 µM. Besides, in the test with HEK293, the CC50 is over 10 µM.
In test [1], `CCN(CC)C(=O)[C@H]1C[C@]12C(=O)Nc1ccc(Br)cc12` registered an EC50 of 1.42 µM. Moreover, the CC50 in the test with HEK293 is over 10 µM.
The matching figures for `CCOC(=O)/C=C1\C(=O)Nc2ccc(Br)cc21`: over 10 µM and over 10 µM.
`CCOC(=O)[C@H]1C[C@]12C(=O)Nc1ccc(-c3ccco3)cc12` showed an EC50 in test [1] of 0.608 µM. This compound also displayed a CC50 in the test with HEK293 of 2.19 µM.
The corresponding values for `CCOC(=O)[C@H]1[C@H](CC)[C@]12C(=O)Nc1ccc(Br)cc12` are 0.03 µM and over 10 µM.
The corresponding values for `CCOC(=O)[C@H]1C[C@]12C(=O)Nc1cccc(Br)c12` are over 10 µM and over 10 µM.
The compound `O=C1Nc2ccc(Cl)cc2[C@@](C#CC2CC2)(C(F)(F)F)O1` [EFAVIRENZ] came in with a CC50 in the test on HEK293 of 10 µM.
In test [1], `Cc1ccnc2c1NC(=O)c1cccnc1N2C1CC1` [NEVIRAPINE] displayed an EC50 of 0.05 µM. Also, the CC50 with HEK293 was over 10 µM.
